{"source": "patent US10912761B2", "about": "“Methods and compositions involving RAD51 inhibitors” (The University of Chicago, priority 2012, dated 2021)", "key": {"immortalized human cells": {"system": "immortalized human cells", "assay": "MMP-1-60 toxicity to immortalized human cells with or without pre-incubation in media", "format": "cell-based", "settings": "4 hours of pre-incubation with tissue culture media vs. no pre-incubation", "procedure": "FIGS. 6A-6B: A. ssDNA binding activity of RAD51 in response to RAD51 antagonists. […] B. MMP-1-60 toxicity to immortalized human cells.\nHEK293 cells were plated into 96-well tissue culture plates at a density of 300 cells per well in the presence or absence of 50 nM MMC (Ben Venue Laboratories) for 24 hours at 37° C., 5% CO2. Media was subsequently replaced with fresh media containing 0.5% DMSO plus a candidate compound for an additional 24 hours. Compounds were then removed, and cultures were allowed to grow to a 50-70% confluence. Average survival from at least three replicates was measured using CellGlo reagent (Promega) or via a previously described sulforhodamine B method (Jayathilaka et al., 2008)."}, "human RAD51 protein [1]": {"molecular_target": "T1, human RAD51 protein (Homo sapiens, UniProt Q06609)", "T1 sequence (Q06609 1-339)": "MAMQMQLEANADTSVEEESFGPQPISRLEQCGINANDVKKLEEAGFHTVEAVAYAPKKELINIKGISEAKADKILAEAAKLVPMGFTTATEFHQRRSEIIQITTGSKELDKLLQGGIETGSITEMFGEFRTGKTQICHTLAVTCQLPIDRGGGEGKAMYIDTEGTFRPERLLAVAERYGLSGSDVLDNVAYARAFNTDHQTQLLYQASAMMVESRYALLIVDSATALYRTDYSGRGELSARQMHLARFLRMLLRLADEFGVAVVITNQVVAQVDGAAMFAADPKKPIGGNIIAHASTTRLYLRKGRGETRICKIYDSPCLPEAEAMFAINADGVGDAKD", "assay": "FP-based DNA binding assay (RAD51 binding to fluorescently labeled ssDNA)", "format": "biochemical", "set-up": "made in house", "settings": "for time dependence of inhibitory activity on the DNA binding activity of RAD51: compound added after the protein has been released from the beads (FIG. 2B)", "procedure": "The synthesized compounds were tested for biological activity in a two-stage manner. They were first evaluated for their ability to inhibit the binding of human RAD51 protein to ssDNA. This primary assay utilizes a fluorescence polarization (FP) based method that involves incubation of purified RAD51 protein with oligonucleotides, which are end-labeled with a fluorescent tag. The binding of RAD51 to this substrate ssDNA is quantified as a function of polarization of light emitted by the fluorescent tag. Chemical analogs were then tested further using secondary cell-based assays. Since cell lethality from RI-1 is thought to be a function of cellular RAD51 inhibition for RI-1, LD50 values were used as a surrogate measurement of in vivo activity against RAD51 in cells. This cell-based assay was also simultaneously utilized to evaluate for compound-induced sensitization of cells to the cross-linking chemotherapeutic drug MMC, thereby confirming that toxic effects are secondary to HR inhibition.\nHuman RAD51 protein was prepared as previously described (Budke et al., 2012). RAD51 was incubated with 100 nM (nucleotide concentration) of a 45-mer oligo-dT 5′ Alexa 488 end-labeled substrate. Binding was measured as a function of fluorescence polarization (FP) of the Alexa 488 tag. 50 μl reactions were performed in 20 mM HEPES, pH 7.5, 2 mM ATP, 10 mM MgCl2, 30 mM NaCl, 2% glycerol, 250 μM BSA, and 4% DMSO. Black polystyrene flat-bottom 384-well reaction plates were read using a Tecan Infinite F200 Pro plate reader, equipped with 485(20)/535(25) FP filters. For experiments used to determine IC50 values, RAD51 concentrations (typically 190-290 nM) were selected to generate FP signal of 50-80% maximum in the absence of any inhibitory compound. Reported IC50 values represent the mean result of at least three replicate wells, and reported errors connote standard deviation."}, "[2]": {"assay": "Glutathione stability experiments (HPLC)", "format": "physicochemical", "settings": "L-glutathione 5 mol equiv, DMSO, 37° C., hourly HPLC; up to 24 hours", "procedure": "FIG. 1. Reaction of RI-1, RI-2, and 9b with glutathione. Glutathione is a tripeptide that contains a nucleophilic sulfhydryl group. Glutathione may react irreversibly with a Michael acceptor compound containing a suitable leaving group at the 4-position.\nCompound (10 mg) and L-glutathione (5 mol equiv) were placed in a round-bottomed flask under argon and dissolved in DMSO (1 mL). The reaction was heated to 37° C. and stirred. Aliquots of the reaction mixture were removed every hour, including one at t=0 min, and analyzed by HPLC. Ratio of substrate and glutathione adduct was recorded and the expected glutathione adduct was then identified using mass spectrometry"}, "[3]": {"system": "HR repair in HEK293 cells (DR-GFP reporter)", "assay": "Quantification of HR efficiency in DR-GFP reporter cells", "format": "cell-based, human", "settings": "24 hours", "procedure": "(§1) FIG. 3. Relative DNA repair efficiencies. […] Reporter-containing HEK293 cells were electroporated with an I-SceI endonuclease-expressing plasmid, incubated with compounds as indicated for 24 hours, and subjected to FACS analysis 24 hours thereafter. […] The reporter construct that measures HR repair consists of two non-functional copies of green fluorescence protein (GFP), one of which is interrupted by an I-SceI endonuclease site. Induction of a DNA break at the I-SceI site can lead to repair by homologous gene conversion that generates a functional copy of GFP (Pierce et al., 1999). A second parallel assay makes use of cells that contain a different reporter that measures single-strand annealing (SSA), which is an alternative method of re-ligating DNA when HR cannot be completed. SSA efficiency is known to be elevated in situations where RAD51 function has been disrupted (Mansour et al., 2008, Stark et al., 2004, and Bennardo et al., 2008). […] HEK293 cells stably transfected with the DR-GFP or SA-GFP reporters were provided by Jeremy Stark (Bennardo et al., 2008). 0.5-1.0×10^7 cells at 80% confluence were electroporated with 30-60 μg pCβASce (or pCAGGS) in 4 mm cuvettes, using the following settings: 240-350 V, 975 μF. […] Compounds were removed and cells were incubated for an additional 24 hours in normal media, following which they were analyzed with a Becton-Dickinson FACScan. […]"}, "[4]": {"system": "SSA in HEK293 cells (SA-GFP reporter)", "assay": "Quantification of SSA efficiency in SA-GFP reporter cells", "format": "cell-based, human", "settings": "24 hours", "procedure": "as §1"}, "HEK293 cells": {"system": "HEK293 cells", "assay": "Cell toxicity assay: sensitization to MMC", "format": "cell-based, human", "settings": "24 hours MMC, then 24 hours compound, 5-7 days drug-free", "description": "Cells were then allowed to grow in drug-free media for an additional 5-7 days. Average survival for each condition is normalized to the MMC-free control of that condition."}, "human RAD51 protein [5]": {"molecular_target": "T1, human RAD51 protein", "assay": "DNA binding competition assay: bead-immobilized RAD51 treated with compound, washed, cleaved, tested by FP (reversible vs. irreversible inhibition)", "settings": "washed extensively, protein cleaved from beads (FIG. 2C)", "protocol": "Reversible vs. irreversible inhibition of RAD51 by compound was tested by incubating compounds with RAD51 while still attached to beads and prior to washing. […] Reversible vs. irreversible inhibition of RAD51. Biotinylated RAD51 was immobilized on streptavidin polyacrylamide beads. The RAD51-coated beads were incubated with compound and subsequently washed extensively to remove any compound that was not covalently attached. The treated protein was subsequently cleaved from the beads and tested for DNA binding activity using our standard FP-based assay.\nTagged RAD51 was immobilized on streptavidin-conjugated polyacrylamide beads (Ultralink, Pierce) and incubated for 30 min at 37° C. with candidate compounds in 20 mM HEPES, pH 7.5, 30 mM NaCl, 2% glycerol, 4% DMSO. The polyacrylamide beads were then washed twice with ice-cold wash buffer (20 mM Tris-HCl, pH 8.0, 300 mM NaCl) containing 4% DMSO and then once with ice-cold wash buffer without DMSO. RAD51 protein was subsequently eluted from beads with TEV protease (gift from Phoebe Rice) and analyzed for DNA binding activity using the above FP-based DNA binding assay."}}, "note": "“Also recorded” adds a separate entry of the source.", "data": [{"compound": "COc1ccc(C2=C(SCCN(C)C)C(=O)N(c3ccc(Cl)c(Cl)c3)C2=O)cc1", "note": "[MMP-1-60, 1-(3,4-dichlorophenyl)-3-((2-(dimethylamino)ethyl)thio)-4-(4-methoxyphenyl)-1H-pyrrole-2,5-dione]", "values": [{"measurement": "cell toxicity with vs. without pre-incubation (stability)", "setting": "immortalized human cells", "value": "comparable cell toxicity"}, {"measurement": "RAD51 inhibitory activity (ssDNA binding), relative", "setting": "human RAD51 protein [1]; FIG. 6A", "value": "intermediate to RI-1 and RI-2"}]}, {"compound": "O=C1C(I)=C(N2CCOCC2)C(=O)N1c1ccc(Cl)c(Cl)c1", "note": "[Compound 9b, 1-(3,4-Dichlorophenyl)-3-iodo-4-morpholino-1H-pyrrole-2,5-dione]", "values": [{"measurement": "reaction with glutathione", "setting": "[2]", "value": "no detectable compound at the first time point measured"}]}, {"compound": "COc1ccc(C2=C(N3CCOCC3)C(=O)N(c3ccc(Cl)c(Cl)c3)C2=O)cc1", "note": "[RI-2, 1-(3,4-Dichloro-phenyl)-3-(4-methoxy-phenyl)-4-morpholin-4-yl-pyrrole-2,5-dione]", "values": [{"measurement": "reaction with glutathione", "setting": "[2]", "value": "no reactivity toward glutathione"}, {"measurement": "HR repair efficiency", "setting": "[3]; 60 μM", "value": "very similar effects; also recorded: inhibition of HR"}, {"measurement": "SSA efficiency", "setting": "[4]; 60 μM", "value": "very similar effects; also recorded: stimulation of SSA"}, {"measurement": "sensitization to cross-linking chemotherapy (MMC)", "setting": "HEK293 cells", "value": "sensitizes human cells to cross-linking chemotherapy"}, {"measurement": "IC50", "setting": "human RAD51 protein [1]; RAD51 binding to ssDNA, FP, read-out: IC50 in the standard DNA binding assay", "value": 44.2, "unit": "µM"}, {"measurement": "time dependence of inhibitory activity on the DNA binding activity of RAD51", "setting": "human RAD51 protein [1]", "value": "no time-dependent increase"}, {"measurement": "DNA binding activity of RAD51 treated with compound prior to washing", "setting": "human RAD51 protein [5]; concentrations up to 240 μM", "value": "no measurable loss of DNA binding activity"}]}, {"compound": "O=C1C(Cl)=C(N2CCOCC2)C(=O)N1c1ccc(Cl)c(Cl)c1", "note": "[RI-1, 1-(3,4-Dichlorophenyl)-3-chloro-4-morpholino-1H-pyrrole-2,5-dione, reference compound]", "values": [{"measurement": "reaction with glutathione", "setting": "[2]", "value": "reduced glutathione reactivity"}, {"measurement": "HR repair efficiency", "setting": "[3]; 20 μM", "value": "inhibition of HR"}, {"measurement": "SSA efficiency", "setting": "[4]; 20 μM", "value": "stimulation of SSA"}, {"measurement": "time dependence of inhibitory activity on the DNA binding activity of RAD51", "setting": "human RAD51 protein [1]", "value": "time-dependent"}, {"measurement": "DNA binding activity of RAD51 treated with compound prior to washing", "setting": "human RAD51 protein [5]; 10 μM compound", "value": "significantly inactivated"}]}]}
